{
  "source": "patent US20050245399A1",
  "about": "“Pyrazole derivatives as herbicidal compositions containing them” (ISHIHARA SANGYO KAISHA, LTD., priority 2004, published 2005)",
  "type_in_all_cases": "in vivo",
  "key": {"[1]": {"system": "redroot pigweed (Amaranthus retroflexus L.): AMARE", "assay": "Test Example 1 pre-emergence herbicidal activity, AMARE", "details": "Rate 63 g a.i./ha, visually observed 20th to 23rd day after application", "how_it_was_run": "(§1)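 Pre-emergence soil spray: wettable powder or emulsifiable concentrate diluted in water (500 L/ha) applied one day after sowing in upland field soil. Visual growth-control rating (%) on days 20–23, 0 = untreated control, 100 = complete kill.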"}, "[2]": {"system": "common cocklebur (Xanthium strumarium L.): XANST", "assay": "Test Example 1 pre-emergence herbicidal activity, XANST", "details": "Rate 63 g a.i./ha, visually observed 20th to 23rd day after application", "from_the_text": "Upland field soil was put into a 1/170,000 ha pot, and seeds of various plants {1. barnyardgrass (Echinochloa crus-galli L.): ECHCG, 2. crabgrass (Digitaria sanguinalis L.): DIGSA, 3. green foxtail (Setaria viridis L.): SETVI, 4. redroot pigweed (Amaranthus retroflexus L.): AMARE, 5. prickly sida (Sida spinosa L.): SEDSP, 6. velvetleaf (Abutilon theophrasti): ABUTH, 7. common cocklebur (Xanthium strumarium L.): XANST, 8. rice (Oryza sativa L.): ORYSA, 9. wheat (Triticum aestivum L.): TRZAX, 10. corn (Zea mays L.): ZEAMX, 11. soybean (Glycine max Merr.): GLXMA} were sown. Then, one day after the sowing, a wettable powder or emulsifiable concentrate having the compound of the present invention formulated in accordance with a usual formulation method, was weighed so that the active ingredient would be a predetermined amount and diluted with water in an amount of 500 L/ha. The herbicide adjusted was applied by a small size sprayer for preemergence treatment. On the 20th to 23rd day after the application of the herbicide, the growth of the respective plants was visually observed, and the herbicidal effects were evaluated by growth controlling degrees (%) ranging from 0 (equivalent to the untreated control) to 100 (complete kill), whereby the results shown in Table 4, were obtained. Compound Nos. in Table 4 correspond to Compound Nos. in Table 1 and 2 given hereinbefore."}, "[3]": {"system": "corn (Zea mays L.), ZEAMX", "assay": "Test Example 2 post-emergence (foliage treatment) herbicidal activity, ZEAMX", "how_it_was_run": "(§2)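 Foliar spray of formulated compound (500 L/ha dilution water, 0.1% v/v spreader) onto young potted plants at defined leaf stages. Scored 0-100% by visual inspection 20-23 d post-spray.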"}, "[4]": {"system": "wheat (Triticum aestivum L.), TRZAX", "assay": "Test Example 2 post-emergence (foliage treatment) herbicidal activity, TRZAX", "how_it_was_run": "as §2"}, "[5]": {"system": "common cocklebur (Xanthium strumarium L.), XANST", "assay": "Test Example 2 post-emergence (foliage treatment) herbicidal activity, XANST", "from_the_text": "Upland field soil was put into a 1/170,000 ha pot, and seeds of various plants were sown. Then, when the plants reached predetermined leaf stages {1. barnyardgrass (Echinochloa crus-galli L.), ECHCG: 1.1-2.1 leaf stage, 2. crabgrass (Digitaria sanguinalis L.), DIGSA: 1.0-2.0 leaf stage, 3. green foxtail (Setaria viridis L.), SETVI: 1.0-2.2 leaf stage, 4. redroot pigweed (Amaranthus retroflexus L.), AMARE: 0.1-1.5 leaf stage, 5. prickly sida (Sida spinosa L.), SIDSP: 0.1-0.6 leaf stage, 6. velvetleaf (Abutilon theophrasti), ABUTH: 0.1-0.6 leaf stage, 7. common cocklebur (Xanthium strumarium L.), XANST: 0.1 leaf stage, 8. rice (Oryza sativa L.), ORYSA; 1.0-2 leaf stage, 9. wheat (Triticum aestivum L.), TRZAX: 2.3-3.5 leaf stage, 10. corn (Zea mays L.), ZEAMXN 2.1-2.6 leaf stage, 11. soybean (Glycine max Merr.), GLXMA: primary leaf stage}, a wettable powder or emulsifiable concentrate having the compound of the present invention formulated in accordance with a usual formulation method, was weighed so that the active ingredient would be a predetermined amount, and diluted with water in an amount of 500 L/ha. To the diluted solution, 0.1% (v/v) of an agricultural spreader was added. The herbicide adjusted was applied by a small size sprayer for foliage treatment. On the 20th to 23rd day after the application of the herbicide, the growth of the respective plants was visually observed, and the herbicidal effects were evaluated by growth controlling degrees (%) ranging from 0 (equivalent to the untreated control) to 100 (complete kill), whereby the results shown in Table 5, were obtained. Compound Nos. in Table 5 correspond to Compound Nos. in Table 1 and 2 given hereinbefore."}, "[6]": {"system": "prickly sida (Sida spinosa L.), SIDSP", "assay": "Test Example 2 post-emergence (foliage treatment) herbicidal activity, SIDSP", "how_it_was_run": "as §2"}, "[7]": {"system": "green foxtail (Setaria viridis L.), SETVI", "assay": "Test Example 2 post-emergence (foliage treatment) herbicidal activity, SETVI", "how_it_was_run": "as §2"}, "[8]": {"system": "redroot pigweed (Amaranthus retroflexus L.), AMARE", "assay": "Test Example 2 post-emergence (foliage treatment) herbicidal activity, AMARE", "how_it_was_run": "(§3)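 Visual growth-control score (0 = untreated, 100 = complete kill) taken 20th-23rd day after a foliar spray. Seedlings were grown in upland field soil and treated at leaf stage: barnyardgrass 1.1-2.1, crabgrass 1.0-2.0, redroot pigweed 0.1-1.5, rice 1.0-2. Spray volume was 500 L/ha water with 0.1% (v/v) agricultural spreader.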"}, "[9]": {"system": "japanese ribbon wapato (Sagittaria pygmaea: SA GPY)", "assay": "Test Example 3 water application herbicidal activity (paddy), SAGPY", "details": "63 g a.i./ha, water application under submerged condition, tubers planted, visually observed 14th day after application; 0 = untreated control, 100 = complete kill", "how_it_was_run": "(§4)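 Flooded paddy-soil pots in greenhouse; ECHOR and SCPJO sown, SAGPY tubers planted a day later, compound applied into 3–4 cm water at weeds' 0.5-leaf stage. Rice transplanted at 2-leaf stage, treated day 4 after transplanting. Visual growth control 0–100% at 14 days (weeds) and 21 days (rice) after application.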"}, "[10]": {"system": "crabgrass (Digitaria sanguinalis L.), DIGSA", "assay": "Test Example 2 post-emergence (foliage treatment) herbicidal activity, DIGSA", "how_it_was_run": "as §3"}, "[11]": {"system": "wheat (Triticum aestivum L.): TRZAX", "assay": "Test Example 1 pre-emergence herbicidal activity, TRZAX", "details": "Rate 63 g a.i./ha, visually observed 20th to 23rd day after application", "how_it_was_run": "as §1"}, "[12]": {"system": "corn (Zea mays L.): ZEAMX", "assay": "Test Example 1 pre-emergence herbicidal activity, ZEAMX", "details": "Rate 63 g a.i./ha, visually observed 20th to 23rd day after application", "how_it_was_run": "as §1"}, "[13]": {"system": "barnyardgrass (Echinochiloa oryzicola: ECHOR)", "assay": "Test Example 3 water application herbicidal activity (paddy), ECHOR", "details": "63 g a.i./ha, water application under submerged condition at 0.5 leaf stage, visually observed 14th day after application; 0 = untreated control, 100 = complete kill", "how_it_was_run": "as §4"}, "[14]": {"system": "soybean (Glycine max Merr.), GLXMA", "assay": "Test Example 2 post-emergence (foliage treatment) herbicidal activity, GLXMA", "how_it_was_run": "as §2"}},
  "data": [
    {"smiles": "COc1c(Cl)cc(F)c(-c2nn(C)c(OC(F)F)c2Cl)c1N(C=O)CC(=O)c1ccc(Cl)cc1", "note": "[Compound 1-13]", "values": [
      {"measurement": "Pre-emergence Herbicidal Activity AMARE (growth controlling degree)", "setting": "[1]", "result": 100, "unit": "%"},
      {"measurement": "Pre-emergence Herbicidal Activity XANST (growth controlling degree)", "setting": "[2]", "result": 50, "unit": "%"},
      {"measurement": "growth controlling degree, ZEAMX", "setting": "[3]; 63 g a.i./ha", "result": 40, "unit": "%"},
      {"measurement": "growth controlling degree, TRZAX", "setting": "[4]; 63 g a.i./ha", "result": 30, "unit": "%"},
      {"measurement": "growth controlling degree, XANST", "setting": "[5]; 63 g a.i./ha", "result": 50, "unit": "%"},
      {"measurement": "growth controlling degree, SIDSP", "setting": "[6]; 63 g a.i./ha", "result": 100, "unit": "%"},
      {"measurement": "growth controlling degree, SETVI", "setting": "[7]; 63 g a.i./ha", "result": 90, "unit": "%"},
      {"measurement": "growth controlling degree, AMARE", "setting": "[8]; 63 g a.i./ha", "result": 100, "unit": "%"},
      {"measurement": "growth controlling degrees (%) SAGPY", "setting": "[9]", "result": 0, "unit": "%"},
      {"measurement": "growth controlling degree, DIGSP", "setting": "[10]; 63 g a.i./ha", "result": 70, "unit": "%"},
      {"measurement": "Pre-emergence Herbicidal Activity TRZAX (growth controlling degree)", "setting": "[11]", "result": 30, "unit": "%"},
      {"measurement": "Pre-emergence Herbicidal Activity ZEAMX (growth controlling degree)", "setting": "[12]", "result": 40, "unit": "%"},
      {"measurement": "growth controlling degrees (%) ECHOR", "setting": "[13]", "result": 95, "unit": "%"},
      {"measurement": "growth controlling degree, GLXMA", "setting": "[14]; 63 g a.i./ha", "result": 50, "unit": "%"}
    ]},
    {"smiles": "COc1c(Cl)cc(F)c(-c2nn(C)c(OC(F)F)c2Cl)c1N(C=O)CC(C)=O", "note": "[Compound 1-14]", "values": [
      {"measurement": "Pre-emergence Herbicidal Activity AMARE (growth controlling degree)", "setting": "[1]", "result": 100, "unit": "%"},
      {"measurement": "Pre-emergence Herbicidal Activity XANST (growth controlling degree)", "setting": "[2]", "result": 100, "unit": "%"},
      {"measurement": "growth controlling degree, ZEAMX", "setting": "[3]; 63 g a.i./ha", "result": 40, "unit": "%"},
      {"measurement": "growth controlling degree, TRZAX", "setting": "[4]; 63 g a.i./ha", "result": 40, "unit": "%"},
      {"measurement": "growth controlling degree, XANST", "setting": "[5]; 63 g a.i./ha", "result": 100, "unit": "%"},
      {"measurement": "growth controlling degree, SIDSP", "setting": "[6]; 63 g a.i./ha", "result": 100, "unit": "%"},
      {"measurement": "growth controlling degree, SETVI", "setting": "[7]; 63 g a.i./ha", "result": 100, "unit": "%"},
      {"measurement": "growth controlling degree, AMARE", "setting": "[8]; 63 g a.i./ha", "result": 100, "unit": "%"},
      {"measurement": "growth controlling degrees (%) SAGPY", "setting": "[9]", "result": 98, "unit": "%"},
      {"measurement": "growth controlling degree, DIGSP", "setting": "[10]; 63 g a.i./ha", "result": 98, "unit": "%"},
      {"measurement": "Pre-emergence Herbicidal Activity TRZAX (growth controlling degree)", "setting": "[11]", "result": 40, "unit": "%"},
      {"measurement": "Pre-emergence Herbicidal Activity ZEAMX (growth controlling degree)", "setting": "[12]", "result": 40, "unit": "%"},
      {"measurement": "growth controlling degrees (%) ECHOR", "setting": "[13]", "result": 100, "unit": "%"},
      {"measurement": "growth controlling degree, GLXMA", "setting": "[14]; 63 g a.i./ha", "result": 60, "unit": "%"}
    ]},
    {"smiles": "Cn1nc(-c2c(F)cc(Cl)c(OC(F)F)c2N)c(Cl)c1OC(F)F", "note": "[Compound 1-81, 3-chloro-6-[4-chloro-5-(difluoromethoxy)-1-methyl-1H-pyrazol-3-yl]-2-(difluoromethoxy)-5-fluorobenzenamine]", "values": [
      {"measurement": "Pre-emergence Herbicidal Activity AMARE (growth controlling degree)", "setting": "[1]", "result": 100, "unit": "%"},
      {"measurement": "Pre-emergence Herbicidal Activity XANST (growth controlling degree)", "setting": "[2]", "result": 60, "unit": "%"},
      {"measurement": "growth controlling degree, ZEAMX", "setting": "[3]; 125 g a.i./ha", "result": 90, "unit": "%"},
      {"measurement": "growth controlling degree, TRZAX", "setting": "[4]; 125 g a.i./ha", "result": 100, "unit": "%"},
      {"measurement": "growth controlling degree, XANST", "setting": "[5]; 125 g a.i./ha", "result": 100, "unit": "%"},
      {"measurement": "growth controlling degree, SIDSP", "setting": "[6]; 125 g a.i./ha", "result": 100, "unit": "%"},
      {"measurement": "growth controlling degree, SETVI", "setting": "[7]; 125 g a.i./ha", "result": 100, "unit": "%"},
      {"measurement": "growth controlling degree, AMARE", "setting": "[8]; 125 g a.i./ha", "result": 100, "unit": "%"},
      {"measurement": "growth controlling degrees (%) SAGPY", "setting": "[9]", "result": 95, "unit": "%"},
      {"measurement": "growth controlling degree, DIGSP", "setting": "[10]; 125 g a.i./ha", "result": 100, "unit": "%"},
      {"measurement": "Pre-emergence Herbicidal Activity TRZAX (growth controlling degree)", "setting": "[11]", "result": 20, "unit": "%"},
      {"measurement": "Pre-emergence Herbicidal Activity ZEAMX (growth controlling degree)", "setting": "[12]", "result": 10, "unit": "%"},
      {"measurement": "growth controlling degrees (%) ECHOR", "setting": "[13]", "result": 100, "unit": "%"},
      {"measurement": "growth controlling degree, GLXMA", "setting": "[14]; 125 g a.i./ha", "result": 80, "unit": "%"}
    ]}
  ]
}
